Data: US20260022142A1, “MACROCYCLIC IMMUNOMODULATORS” (Bristol-Myers Squibb Company, priority 2022, published 2026)
Bridge positions count the residues as written; N and C are the ends. Square brackets hold non-standard residues; d marks the D form. Peptide text beside a SMILES is read from it. * marks the point of attachment. Phe(4-CH2CH2COOH) = N[C@@H](Cc1ccc(CCC(=O)O)cc1)C(=O)O; Tyr(3,5-F2) = N[C@@H](Cc1cc(F)c(O)c(F)c1)C(=O)O; Phe(4-COOH) = N[C@@H](Cc1ccc(C(=O)O)cc1)C(=O)O; Bip = N[C@@H](Cc1ccc(-c2ccccc2)cc1)C(=O)O; Tyr(3-F) = N[C@@H](Cc1ccc(O)c(F)c1)C(=O)O; Phe(4-NH2) = Nc1ccc(C[C@H](N)C(=O)O)cc1; Phe(3-Me) = Cc1cccc(C[C@H](N)C(=O)O)c1; Val(3-OH) = CC(C)(O)[C@H](N)C(=O)O; mTyr = N[C@@H](Cc1cccc(O)c1)C(=O)O; dAla(cPr) = N[C@H](CC1CC1)C(=O)O; 4Pal = N[C@@H](Cc1ccncc1)C(=O)O; Cha = N[C@@H](CC1CCCCC1)C(=O)O; Cit = NC(=O)NCCC[C@H](N)C(=O)O; dCba = N[C@H](CC1CCC1)C(=O)O; Carboxymethyl = O=C(O)C*; Orn = NCCC[C@H](N)C(=O)O; Aun = NCCCCCCCCCCC(=O)O; Dab = NCC[C@H](N)C(=O)O; Dap = NC[C@H](N)C(=O)O; AEEA = NCCOCCOCC(=O)O

Each compound was assayed against T1, PD-1/PD-L1 interaction (PE-labeled human PD-L1-Ig binding to Jurkat cell line over-expressing human PD-1) (Homo sapiens, UniProt Q15116) (assay: Jurkat-PD-1 Cell Binding High-Content Screening Assay (CBA)). Conditions: Jurkat cell line over-expressing human PD-1; PE-labeled PD-L1-Ig 20 nM final; read-out: Jurkat hPD1-PDL1 IC50.
T1 construct: expressed in transfected cells; host or cells: Jurkat
T1 sequence (Q15116 25-288): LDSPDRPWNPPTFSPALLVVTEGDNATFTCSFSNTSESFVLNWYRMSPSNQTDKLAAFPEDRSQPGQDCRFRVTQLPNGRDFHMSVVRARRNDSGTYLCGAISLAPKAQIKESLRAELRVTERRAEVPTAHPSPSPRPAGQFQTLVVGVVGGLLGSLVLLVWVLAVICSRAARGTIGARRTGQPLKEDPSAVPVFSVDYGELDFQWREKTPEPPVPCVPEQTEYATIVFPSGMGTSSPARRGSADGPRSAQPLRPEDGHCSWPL
Format: cell-based
In short: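 Jurkat-hPD-1 cells, DMEM/10% FCS; cpd 2 h 37° C; PE-PD-L1-Ig 20 nM final, 1 h; 4% PFA fix + Hoechst 33342, 3× dPBS wash; high-content imaging read-out.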
An IC50 of 40.4 nM was found for `CC(C)C[C@@H]1NC(=O)[C@H](Cc2c[nH]c3ccccc23)NC(=O)[C@H](CC(=O)O)NC(=O)[C@H](Cc2ccc(OCC(=O)O)cc2)NC(=O)[C@H](CN)NC(=O)CSC[C@@H](C(=O)N[C@@H](CCN)C(=O)NCCCCCCCCCCC(=O)O)NC(=O)[C@@H](CO)NC(=O)[C@H](C(C)C)NC(=O)[C@H](CC2CCCCC2)NC(=O)[C@H](CCN)NC(=O)[C@@H](CC(C)C)NC(=O)[C@H](CCCN)NC(=O)[C@H](C(C)C)NC(=O)[C@H](Cc2ccc(-c3ccccc3)cc2)NC1=O` [Compound 2018] ({CH2CO}-[Dap]Y(Carboxymethyl)DWL[Bip]V[Orn][dL][Dab][Cha]V[dS]C[Dab][Aun]-OH; thioether N-14) in this work. An IC50 of 49.9 nM was found for `CC(C)C[C@@H]1NC(=O)[C@H](Cc2c[nH]c3ccccc23)NC(=O)[C@H](CC(=O)O)NC(=O)[C@H](Cc2ccc(C(=O)O)cc2)NC(=O)[C@H](Cc2ccc(CCC(=O)O)cc2)NC(=O)CSC[C@@H](C(=O)N[C@@H](CCN)C(=O)NCCCCCCCCCCC(=O)O)NC(=O)[C@@H](CO)NC(=O)[C@H](C(C)C)NC(=O)[C@H](CC2CCCCC2)NC(=O)[C@H](CCN)NC(=O)[C@@H](CC(C)C)NC(=O)[C@H](CCCN)NC(=O)[C@H](C(C)C)NC(=O)[C@H](Cc2ccc(-c3ccccc3)cc2)NC1=O` [Compound 2019] ({CH2CO}-[Phe(4-CH2CH2COOH)][Phe(4-COOH)]DWL[Bip]V[Orn][dL][Dab][Cha]V[dS]C[Dab][Aun]-OH; thioether N-14) in this work. An IC50 of 10.5 nM was found for `Cc1cccc(C[C@@H]2NC(=O)[C@H](CC(=O)O)NC(=O)[C@H](Cc3ccc(OCC(=O)O)cc3)NC(=O)[C@H](CN)NC(=O)CSC[C@@H](C(=O)N[C@@H](CC(=O)O)C(=O)NCCOCCOCC(=O)NCCCCCCCCCCC(=O)O)NC(=O)[C@H](CCCN)NC(=O)[C@H](C(C)C)NC(=O)[C@H](CC3CCCCC3)NC(=O)[C@H](CCN)NC(=O)[C@@H](CC(C)C)NC(=O)[C@H](CCCN)NC(=O)[C@H](CCCNC(N)=O)NC(=O)[C@H](Cc3ccc(-c4ccccc4)cc3)NC(=O)[C@H](C(C)C)NC2=O)c1` [Compound 2020] ({CH2CO}-[Dap]Y(Carboxymethyl)D[Phe(3-Me)]V[Bip][Cit][Orn][dL][Dab][Cha]V[Orn]CD[AEEA][Aun]-OH; thioether N-14) in this work. An IC50 of 30.8 nM was found for `Cc1cccc(C[C@@H]2NC(=O)[C@H](CC(=O)O)NC(=O)[C@H](Cc3ccc(OCC(=O)O)cc3)NC(=O)[C@H](CN)NC(=O)CSC[C@@H](C(=O)N[C@@H](CC(=O)O)C(=O)NCCOCCOCC(=O)NCCCCCCCCCCC(=O)O)NC(=O)[C@@H](CO)NC(=O)[C@H](C(C)C)NC(=O)[C@H](CC3CCCCC3)NC(=O)[C@H](CCN)NC(=O)[C@@H](CC(C)C)NC(=O)[C@H](CCCN)NC(=O)[C@H](CCCNC(N)=O)NC(=O)[C@H](Cc3ccc(-c4ccccc4)cc3)NC(=O)[C@H](C(C)C)NC2=O)c1` [Compound 2021] ({CH2CO}-[Dap]Y(Carboxymethyl)D[Phe(3-Me)]V[Bip][Cit][Orn][dL][Dab][Cha]V[dS]CD[AEEA][Aun]-OH; thioether N-14) in this work. An IC50 of 59.5 nM was found for `Cc1cccc(C[C@@H]2NC(=O)[C@H](CC(=O)O)NC(=O)[C@H](Cc3ccc(OCC(=O)O)cc3)NC(=O)[C@H](Cc3ccncc3)NC(=O)CSC[C@@H](C(=O)N[C@@H](CCN)C(=O)NCCOCCOCC(=O)NCCCCCCCCCCC(=O)O)NC(=O)[C@H](CN)NC(=O)[C@H](C(C)(C)O)NC(=O)[C@H](CC3CCCCC3)NC(=O)[C@H](CCN)NC(=O)[C@@H](CC(C)C)NC(=O)[C@H](CCCN)NC(=O)[C@H](Cc3ccc(OCC(=O)O)cc3)NC(=O)[C@H](Cc3ccc(-c4ccccc4)cc3)NC(=O)[C@H](Cc3ccc(OCC(=O)O)cc3)NC2=O)c1` [Compound 2022] ({CH2CO}-[4Pal]Y(Carboxymethyl)D[Phe(3-Me)]Y(Carboxymethyl)[Bip]Y(Carboxymethyl)[Orn][dL][Dab][Cha][Val(3-OH)][Dap]C[Dab][AEEA][Aun]-OH; thioether N-14) in this work. An IC50 of 10.2 nM was found for `Cc1cccc(C[C@@H]2NC(=O)[C@H](CC(=O)O)NC(=O)[C@H](Cc3ccc(OCC(=O)O)cc3)NC(=O)[C@H](CN)NC(=O)CSC[C@@H](C(=O)N[C@@H](CCN)C(=O)NCCOCCOCC(=O)NCCCCCCCCCCC(=O)O)NC(=O)[C@H](CO)NC(=O)[C@H](C(C)(C)O)NC(=O)[C@H](CC3CCCCC3)NC(=O)[C@H](CCN)NC(=O)[C@@H](CC(C)C)NC(=O)[C@H](CCCN)NC(=O)[C@H](Cc3ccc(OCC(=O)O)cc3)NC(=O)[C@H](Cc3ccc(-c4ccccc4)cc3)NC(=O)[C@H](Cc3ccc(OCC(=O)O)cc3)NC2=O)c1` [Compound 2023] ({CH2CO}-[Dap]Y(Carboxymethyl)D[Phe(3-Me)]Y(Carboxymethyl)[Bip]Y(Carboxymethyl)[Orn][dL][Dab][Cha][Val(3-OH)]SC[Dab][AEEA][Aun]-OH; thioether N-14) in this work. An IC50 of 20.5 nM was found for `Cc1cccc(C[C@@H]2NC(=O)[C@H](CC(=O)O)NC(=O)[C@H](Cc3ccc(OCC(=O)O)cc3)NC(=O)[C@H](CN)NC(=O)CSC[C@@H](C(=O)N[C@@H](CCN)C(=O)NCCCCCCCCCCC(N)=O)NC(=O)[C@H]([C@@H](C)O)NC(=O)[C@H](C(C)C)NC(=O)[C@H](CC3CCCCC3)NC(=O)[C@H](CCN)NC(=O)[C@@H](CC(C)C)NC(=O)[C@H](CCCN)NC(=O)[C@H](CCCNC(=N)N)NC(=O)[C@H](Cc3ccc(-c4ccccc4)cc3)NC(=O)[C@H](C(C)C)NC2=O)c1` [Compound 2025] ({CH2CO}-[Dap]Y(Carboxymethyl)D[Phe(3-Me)]V[Bip]R[Orn][dL][Dab][Cha]VTC[Dab][Aun]-NH2; thioether N-14) in this work. An IC50 of 10.2 nM was found for `Cc1cccc(C[C@@H]2NC(=O)[C@H](CC(=O)O)NC(=O)[C@H](Cc3ccc(OCC(=O)O)cc3)NC(=O)[C@H](CN)NC(=O)CSC[C@@H](C(=O)N[C@@H](CCN)C(=O)NCCCCCCCCCCC(=O)O)NC(=O)[C@H](CCCCN)NC(=O)[C@H](C(C)C)NC(=O)[C@H](CC3CCCCC3)NC(=O)[C@H](CCN)NC(=O)[C@@H](CC3CC3)NC(=O)[C@H](CCCN)NC(=O)[C@H](C(C)C)NC(=O)[C@H](Cc3ccc(-c4ccccc4)cc3)NC(=O)[C@H](C(C)C)NC2=O)c1` [Compound 2026] ({CH2CO}-[Dap]Y(Carboxymethyl)D[Phe(3-Me)]V[Bip]V[Orn][dAla(cPr)][Dab][Cha]VKC[Dab][Aun]-OH; thioether N-14) in this work. An IC50 of 15 nM was found for `Cc1cccc(C[C@@H]2NC(=O)[C@H](CC(=O)O)NC(=O)[C@H](Cc3ccc(OCC(=O)O)cc3)NC(=O)[C@H](CN)NC(=O)CSC[C@@H](C(=O)N[C@@H](CCN)C(=O)NCCCCCCCCCCC(=O)O)NC(=O)[C@H](CCCCN)NC(=O)[C@H](C(C)C)NC(=O)[C@H](CC3CCCCC3)NC(=O)[C@H](CCN)NC(=O)[C@@H](CC3CCC3)NC(=O)[C@H](CCCN)NC(=O)[C@H](C(C)C)NC(=O)[C@H](Cc3ccc(-c4ccccc4)cc3)NC(=O)[C@H](C(C)C)NC2=O)c1` [Compound 2027] ({CH2CO}-[Dap]Y(Carboxymethyl)D[Phe(3-Me)]V[Bip]V[Orn][dCba][Dab][Cha]VKC[Dab][Aun]-OH; thioether N-14) in this work. An IC50 of 13.7 nM was found for `CC(C)C[C@H]1NC(=O)[C@H](CCCN)NC(=O)[C@H](C(C)C)NC(=O)[C@H](Cc2ccc(-c3ccccc3)cc2)NC(=O)[C@H](C(C)C)NC(=O)[C@H](Cc2ccc(N)cc2)NC(=O)[C@H](CC(=O)O)NC(=O)[C@H](Cc2ccc(OCC(=O)O)cc2)NC(=O)[C@H](CN)NC(=O)CSC[C@@H](C(=O)N[C@@H](CCN)C(=O)NCCCCCCCCCCC(=O)O)NC(=O)[C@H](CCCCN)NC(=O)[C@H](C(C)C)NC(=O)[C@H](CC2CCCCC2)NC(=O)[C@H](CCN)NC1=O` [Compound 2028] ({CH2CO}-[Dap]Y(Carboxymethyl)D[Phe(4-NH2)]V[Bip]V[Orn][dL][Dab][Cha]VKC[Dab][Aun]-OH; thioether N-14) in this work. An IC50 of 8 nM was found for `CC(C)C[C@H]1NC(=O)[C@H](CCCN)NC(=O)[C@H](C(C)C)NC(=O)[C@H](Cc2ccc(-c3ccccc3)cc2)NC(=O)[C@H](C(C)C)NC(=O)[C@H](Cc2cccc(O)c2)NC(=O)[C@H](CC(=O)O)NC(=O)[C@H](Cc2ccc(OCC(=O)O)cc2)NC(=O)[C@H](CN)NC(=O)CSC[C@@H](C(=O)N[C@@H](CCN)C(=O)NCCCCCCCCCCC(=O)O)NC(=O)[C@H](CCCCN)NC(=O)[C@H](C(C)C)NC(=O)[C@H](CC2CCCCC2)NC(=O)[C@H](CCN)NC1=O` [Compound 2029] ({CH2CO}-[Dap]Y(Carboxymethyl)D[mTyr]V[Bip]V[Orn][dL][Dab][Cha]VKC[Dab][Aun]-OH; thioether N-14) in this work. An IC50 of 7.2 nM was found for `CC(C)C[C@H]1NC(=O)[C@H](CCCN)NC(=O)[C@H](C(C)C)NC(=O)[C@H](Cc2ccc(-c3ccccc3)cc2)NC(=O)[C@H](C(C)C)NC(=O)[C@H](Cc2ccc(O)c(F)c2)NC(=O)[C@H](CC(=O)O)NC(=O)[C@H](Cc2ccc(OCC(=O)O)cc2)NC(=O)[C@H](CN)NC(=O)CSC[C@@H](C(=O)N[C@@H](CCN)C(=O)NCCCCCCCCCCC(=O)O)NC(=O)[C@H](CCCCN)NC(=O)[C@H](C(C)C)NC(=O)[C@H](CC2CCCCC2)NC(=O)[C@H](CCN)NC1=O` [Compound 2030] ({CH2CO}-[Dap]Y(Carboxymethyl)D[Tyr(3-F)]V[Bip]V[Orn][dL][Dab][Cha]VKC[Dab][Aun]-OH; thioether N-14) in this work. An IC50 of 147 nM was found for `CC(C)C[C@H]1NC(=O)[C@H](CCCN)NC(=O)[C@H](C(C)C)NC(=O)[C@H](Cc2ccc(-c3ccccc3)cc2)NC(=O)[C@H](C(C)C)NC(=O)[C@H](Cc2cc(F)c(O)c(F)c2)NC(=O)[C@H](CC(=O)O)NC(=O)[C@H](Cc2ccc(OCC(=O)O)cc2)NC(=O)[C@H](CN)NC(=O)CSC[C@@H](C(=O)N[C@@H](CCN)C(=O)NCCCCCCCCCCC(=O)O)NC(=O)[C@H](CCCCN)NC(=O)[C@H](C(C)C)NC(=O)[C@H](CC2CCCCC2)NC(=O)[C@H](CCN)NC1=O` [Compound 2032] ({CH2CO}-[Dap]Y(Carboxymethyl)D[Tyr(3,5-F2)]V[Bip]V[Orn][dL][Dab][Cha]VKC[Dab][Aun]-OH; thioether N-14) in this work.
